How the values were obtained:
PDGFR BETA = biological target: T1, PDGFR BETA (Homo sapiens, UniProt P09619); test: Enzyme selectivity panel; type: biochemical; conditions: 1 mM ATP
T1 construct: purchased In-house HTRF panel (56 kinases) and PerkinElmer (161-kinase panel)
Method: (§1) The kinase assays were carried out at room temperature in HEPES 50 mM, pH 7.0, NaN3 0.02%, BSA 0.01%, Orthovanadate 0.1 mM, DTT 1 mM, MgCl2 10 mM in a final volume of 10 µL. Test compounds were transferred to the plate wells by ECHO liquid handler (Labcyte, San Jose, CA) with 0.5% dimethyl sulfoxide (DMSO) in the final assay. Peptide/kinase mixtures were diluted in the appropriate enzymatic buffer and 5µL of the mixture was added to a 384-well small volume black plate. Reactions were initiated by the addition of 5 µL ATP in reaction buffer, the final reaction mixture consisted of 500 nM peptide substrate, 1 mM ATP, and appropriate amount of specific kinase. […] The plates were then sealed and centrifuged at 1800 rpm for 2 minutes. […] Half maximal inhibitory concentration (IC50) determination was performed by fitting the curve of percent control activity versus the log of the compound concentration using the GraphPad Prism 6.0 software.

DYRK2 = DYRK2 (Homo sapiens, UniProt Q92630); test: Enzyme selectivity panel; type: biochemical; conditions: 1 mM ATP
Method: as §1

H1581 (lung cancer) = test: Cell viability assay (CellTiter-Glo); type: cell-based; conditions: Homo sapiens, NCI-H1581; FGFR1 amplification; 72 hours; read-out: Mean GI50 ± S.D.
UMUC3 = test: Cell viability assay (CellTiter-Glo); type: cell-based; conditions: Homo sapiens, Bladder, lacking FGFR alterations
PKCD = PKCD (Homo sapiens, UniProt Q05655); test: Enzyme selectivity panel; type: biochemical; conditions: 1 mM ATP
Method: as §1

LCK = LCK (Homo sapiens, UniProt P06239); test: Enzyme selectivity panel; type: biochemical; conditions: 1 mM ATP
Method: as §1

[1] = system: b-FGF induced growth of human umbilical vein endothelial cells (HUVEC); test: HUVEC proliferation stimulated with b-FGF; type: cell-based; conditions: read-out: IC50 for b-FGF induced growth
EPHA2 = EPHA2 (Homo sapiens, UniProt P29317); test: Enzyme selectivity panel; type: biochemical; conditions: 1 mM ATP
Method: as §1

LRRK2 = LRRK2 (Homo sapiens, UniProt Q5S007); test: Enzyme selectivity panel; type: biochemical; conditions: 1 mM ATP
Method: as §1

DMS-114 (lung cancer) = test: Cell viability assay (CellTiter-Glo); type: cell-based; conditions: Homo sapiens, FGFR1 amplification, 72 hours, read-out: Mean GI50 ± S.D.
FAK = FAK (Homo sapiens, UniProt Q05397); test: Enzyme selectivity panel; type: biochemical; conditions: 1 mM ATP
Method: as §1

[2] = system: primary T cells from normal donors; conditions: up to 1,500 nM
Pharmacokinetic analyses = type: in vivo, beagle dogs; conditions: male dog
Method: The i.v. formulation in rats was 5% dimethylacetamide (DMAC) and 25% sulfobutyl ether β-cyclodextrin in acidified saline (pH 3). The i.v. formulation in dogs and monkeys was 5% DMAC and 20% sulfobutyl ether β-cyclodextrin in saline. The oral formulation in all species was 5% DMAC in 0.5% methylcellulose aqueous solution. For rats, blood samples were collected at predose, 5 (i.v. dosing only), 15, and 30 minutes, and 1, 2, 4, 6, 8, and 24 hours. For dogs, blood samples were collected at predose, 2.5 and 5 (i.v. dosing only), 15, and 30 minutes, and 1, 2, 3, 4, 6, 8, 12, and 24 hours postdose. For monkeys, blood samples were collected at predose, 5 and 10 (i.v. dosing only), 15, and 30 minutes, and 1, 2, 3, 4, 6, 8, 12, 16, and 24 hours postdose. Collected blood samples were processed to extract plasma by centrifugation and stored at −20 °C until analysis.
The plasma was protein precipitated and the diluted supernatant was analyzed using LC/MS/MS. A standard curve was prepared in plasma from 1 to 5,000 nM and processed in the same manner as the samples. The pharmacokinetic parameters were determined using WinNonLin 6.3.

[3] = system: KG1 (FGFROP2-FGFR1 fusion positive) AML model; test: KG1 xenograft efficacy; conditions: 0.3 mg/kg once daily, oral, 14 days; P < 0.05
Method: The inoculation was performed subcutaneously on the right flank. The treatment of tumor bearing mice was started 7 days after tumor inoculation.

BTK = BTK (Homo sapiens, UniProt Q06187); test: Enzyme selectivity panel; type: biochemical; conditions: 1 mM ATP
Method: as §1

MAPKAPK2 = MAPKAPK2 (Homo sapiens, UniProt P49137); test: Enzyme selectivity panel; type: biochemical; conditions: 1 mM ATP
Method: as §1

[4] = system: VEGF-induced growth of human umbilical vein endothelial cells (HUVEC); test: HUVEC proliferation stimulated with VEGF; type: cell-based
Excerpt: S2 Figure. […] Directly. An assay was developed to evaluate the proliferation of human umbilical vein endothelial cells (HUVEC) when stimulated with basic FGF (b-FGF) or VEGF.

KMS12BM = test: Cell viability assay (CellTiter-Glo); type: cell-based; conditions: Homo sapiens, KMS-12-BM; Myeloma; lacking FGFR alterations
TGFBR1 = TGFBR1 (Homo sapiens, UniProt P36897); test: Enzyme selectivity panel; type: biochemical; conditions: 1 mM ATP
Method: as §1

IGF1R = IGF1R (Homo sapiens, UniProt P08069); test: Enzyme selectivity panel; type: biochemical; conditions: 1 mM ATP
Method: as §1

OPM-2 (myeloma) = test: Cell viability assay (CellTiter-Glo); type: cell-based; conditions: Homo sapiens, IgH-FGFR3 translocation, 72 hours, read-out: Mean GI50 ± S.D.
LOK = LOK (Homo sapiens, UniProt O94804); test: Enzyme selectivity panel; type: biochemical; conditions: 1 mM ATP
Method: as §1

[5] = cited from earlier work
PRKAA1 = PRKAA1 (Homo sapiens, UniProt Q13131); test: Enzyme selectivity panel; type: biochemical; conditions: 1 mM ATP
Method: as §1

[6] = system: phospho-FGFR3 in RT-112 cells; conditions: proximity ligation assay

PRKAA1, sequence (Q13131 whole entry, species assumed): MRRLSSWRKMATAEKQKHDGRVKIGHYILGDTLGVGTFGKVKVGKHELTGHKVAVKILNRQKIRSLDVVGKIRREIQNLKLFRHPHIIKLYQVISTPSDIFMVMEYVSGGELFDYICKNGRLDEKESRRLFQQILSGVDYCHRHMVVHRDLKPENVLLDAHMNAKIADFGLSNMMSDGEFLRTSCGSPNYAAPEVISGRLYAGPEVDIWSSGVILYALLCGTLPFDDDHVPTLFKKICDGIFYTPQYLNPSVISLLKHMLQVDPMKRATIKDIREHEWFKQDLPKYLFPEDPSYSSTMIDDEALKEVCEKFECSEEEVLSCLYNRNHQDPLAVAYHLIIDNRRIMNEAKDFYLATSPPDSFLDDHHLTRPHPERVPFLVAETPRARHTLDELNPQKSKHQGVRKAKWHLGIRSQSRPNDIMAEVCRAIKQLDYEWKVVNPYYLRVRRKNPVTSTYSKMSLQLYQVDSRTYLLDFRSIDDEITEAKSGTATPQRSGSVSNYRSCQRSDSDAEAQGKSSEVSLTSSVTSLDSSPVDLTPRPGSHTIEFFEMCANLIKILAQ
PRKAA1, sequence (Q9Y478 whole entry partner, species assumed): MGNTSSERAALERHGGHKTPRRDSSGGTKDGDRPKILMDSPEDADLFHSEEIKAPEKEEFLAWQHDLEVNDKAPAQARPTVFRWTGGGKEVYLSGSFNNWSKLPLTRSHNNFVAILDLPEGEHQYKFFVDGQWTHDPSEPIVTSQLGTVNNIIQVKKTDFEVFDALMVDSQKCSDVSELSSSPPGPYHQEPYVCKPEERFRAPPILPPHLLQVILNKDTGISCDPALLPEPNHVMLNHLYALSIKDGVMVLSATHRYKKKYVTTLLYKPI
PRKAA1, sequence (P54619 whole entry partner, species assumed): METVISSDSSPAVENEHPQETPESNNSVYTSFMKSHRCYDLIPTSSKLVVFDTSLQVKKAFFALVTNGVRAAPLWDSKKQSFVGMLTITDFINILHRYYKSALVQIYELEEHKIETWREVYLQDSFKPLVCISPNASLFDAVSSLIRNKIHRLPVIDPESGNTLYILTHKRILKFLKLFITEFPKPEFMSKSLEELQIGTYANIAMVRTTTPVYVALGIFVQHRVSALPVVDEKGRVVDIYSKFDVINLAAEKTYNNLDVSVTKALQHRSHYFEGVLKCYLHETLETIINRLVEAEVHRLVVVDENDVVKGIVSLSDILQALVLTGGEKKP
LRRK2, sequence (Q5S007 whole entry, species assumed): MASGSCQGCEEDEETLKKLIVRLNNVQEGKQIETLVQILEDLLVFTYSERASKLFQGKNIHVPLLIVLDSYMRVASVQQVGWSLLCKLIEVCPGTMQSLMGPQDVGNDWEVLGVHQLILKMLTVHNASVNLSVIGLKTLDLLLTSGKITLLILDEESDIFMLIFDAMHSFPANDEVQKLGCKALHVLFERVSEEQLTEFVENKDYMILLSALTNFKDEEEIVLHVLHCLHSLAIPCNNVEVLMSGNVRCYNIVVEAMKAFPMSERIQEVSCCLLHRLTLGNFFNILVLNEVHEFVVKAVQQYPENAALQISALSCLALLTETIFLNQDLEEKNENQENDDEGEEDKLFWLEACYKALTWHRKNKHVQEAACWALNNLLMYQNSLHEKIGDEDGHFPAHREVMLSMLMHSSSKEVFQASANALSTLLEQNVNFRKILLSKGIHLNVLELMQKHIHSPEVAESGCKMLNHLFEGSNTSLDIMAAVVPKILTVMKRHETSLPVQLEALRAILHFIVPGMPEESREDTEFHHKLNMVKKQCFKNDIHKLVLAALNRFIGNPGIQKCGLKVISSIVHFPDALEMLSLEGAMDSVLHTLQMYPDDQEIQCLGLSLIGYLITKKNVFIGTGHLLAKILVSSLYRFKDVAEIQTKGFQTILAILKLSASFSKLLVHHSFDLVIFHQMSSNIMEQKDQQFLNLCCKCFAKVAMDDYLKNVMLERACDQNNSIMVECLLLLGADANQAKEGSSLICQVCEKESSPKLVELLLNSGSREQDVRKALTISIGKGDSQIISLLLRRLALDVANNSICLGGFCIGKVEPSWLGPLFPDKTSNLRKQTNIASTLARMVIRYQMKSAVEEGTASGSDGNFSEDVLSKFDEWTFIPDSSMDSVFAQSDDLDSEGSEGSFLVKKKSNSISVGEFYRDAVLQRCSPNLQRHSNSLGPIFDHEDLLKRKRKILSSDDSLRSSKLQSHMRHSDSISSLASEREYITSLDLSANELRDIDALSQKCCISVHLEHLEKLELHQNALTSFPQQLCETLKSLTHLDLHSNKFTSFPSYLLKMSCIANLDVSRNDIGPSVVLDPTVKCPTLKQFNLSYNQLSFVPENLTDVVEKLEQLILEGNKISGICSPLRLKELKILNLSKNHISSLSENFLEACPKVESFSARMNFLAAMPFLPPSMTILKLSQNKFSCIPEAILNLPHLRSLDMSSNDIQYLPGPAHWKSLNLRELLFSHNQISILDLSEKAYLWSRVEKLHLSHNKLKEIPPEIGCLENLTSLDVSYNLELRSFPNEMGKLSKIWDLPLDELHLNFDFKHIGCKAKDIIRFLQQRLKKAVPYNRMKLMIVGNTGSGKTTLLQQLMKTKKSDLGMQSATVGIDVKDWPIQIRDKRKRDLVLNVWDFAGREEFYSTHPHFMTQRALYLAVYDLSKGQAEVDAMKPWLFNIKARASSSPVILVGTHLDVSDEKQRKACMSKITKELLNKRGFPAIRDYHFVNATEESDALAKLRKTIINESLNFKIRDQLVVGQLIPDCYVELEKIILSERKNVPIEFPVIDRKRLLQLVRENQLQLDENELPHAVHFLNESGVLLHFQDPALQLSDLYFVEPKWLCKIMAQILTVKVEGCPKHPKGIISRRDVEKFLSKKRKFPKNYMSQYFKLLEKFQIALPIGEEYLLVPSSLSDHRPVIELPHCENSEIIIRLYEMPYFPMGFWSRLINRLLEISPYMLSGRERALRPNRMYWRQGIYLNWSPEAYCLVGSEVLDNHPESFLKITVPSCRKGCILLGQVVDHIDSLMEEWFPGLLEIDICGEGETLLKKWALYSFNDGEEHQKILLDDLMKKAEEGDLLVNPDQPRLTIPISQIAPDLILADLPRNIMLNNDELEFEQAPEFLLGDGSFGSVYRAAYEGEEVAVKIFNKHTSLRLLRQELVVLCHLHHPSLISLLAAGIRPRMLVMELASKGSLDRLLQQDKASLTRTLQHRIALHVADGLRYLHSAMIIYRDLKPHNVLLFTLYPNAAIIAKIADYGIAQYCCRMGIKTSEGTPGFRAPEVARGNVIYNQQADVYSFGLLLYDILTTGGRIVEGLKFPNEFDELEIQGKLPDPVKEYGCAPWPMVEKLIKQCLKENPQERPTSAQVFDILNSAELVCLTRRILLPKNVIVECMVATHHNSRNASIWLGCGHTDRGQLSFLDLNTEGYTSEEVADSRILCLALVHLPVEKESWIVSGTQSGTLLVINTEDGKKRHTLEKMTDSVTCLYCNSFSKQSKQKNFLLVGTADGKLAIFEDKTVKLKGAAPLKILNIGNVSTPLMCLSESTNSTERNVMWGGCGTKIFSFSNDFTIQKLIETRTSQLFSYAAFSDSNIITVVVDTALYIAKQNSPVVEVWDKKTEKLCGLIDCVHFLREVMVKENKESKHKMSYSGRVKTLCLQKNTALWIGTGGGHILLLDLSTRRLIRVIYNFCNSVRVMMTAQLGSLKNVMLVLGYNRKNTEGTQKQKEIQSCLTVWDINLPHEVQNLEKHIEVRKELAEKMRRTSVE
IGF1R, sequence (P08069 31-1367, species assumed): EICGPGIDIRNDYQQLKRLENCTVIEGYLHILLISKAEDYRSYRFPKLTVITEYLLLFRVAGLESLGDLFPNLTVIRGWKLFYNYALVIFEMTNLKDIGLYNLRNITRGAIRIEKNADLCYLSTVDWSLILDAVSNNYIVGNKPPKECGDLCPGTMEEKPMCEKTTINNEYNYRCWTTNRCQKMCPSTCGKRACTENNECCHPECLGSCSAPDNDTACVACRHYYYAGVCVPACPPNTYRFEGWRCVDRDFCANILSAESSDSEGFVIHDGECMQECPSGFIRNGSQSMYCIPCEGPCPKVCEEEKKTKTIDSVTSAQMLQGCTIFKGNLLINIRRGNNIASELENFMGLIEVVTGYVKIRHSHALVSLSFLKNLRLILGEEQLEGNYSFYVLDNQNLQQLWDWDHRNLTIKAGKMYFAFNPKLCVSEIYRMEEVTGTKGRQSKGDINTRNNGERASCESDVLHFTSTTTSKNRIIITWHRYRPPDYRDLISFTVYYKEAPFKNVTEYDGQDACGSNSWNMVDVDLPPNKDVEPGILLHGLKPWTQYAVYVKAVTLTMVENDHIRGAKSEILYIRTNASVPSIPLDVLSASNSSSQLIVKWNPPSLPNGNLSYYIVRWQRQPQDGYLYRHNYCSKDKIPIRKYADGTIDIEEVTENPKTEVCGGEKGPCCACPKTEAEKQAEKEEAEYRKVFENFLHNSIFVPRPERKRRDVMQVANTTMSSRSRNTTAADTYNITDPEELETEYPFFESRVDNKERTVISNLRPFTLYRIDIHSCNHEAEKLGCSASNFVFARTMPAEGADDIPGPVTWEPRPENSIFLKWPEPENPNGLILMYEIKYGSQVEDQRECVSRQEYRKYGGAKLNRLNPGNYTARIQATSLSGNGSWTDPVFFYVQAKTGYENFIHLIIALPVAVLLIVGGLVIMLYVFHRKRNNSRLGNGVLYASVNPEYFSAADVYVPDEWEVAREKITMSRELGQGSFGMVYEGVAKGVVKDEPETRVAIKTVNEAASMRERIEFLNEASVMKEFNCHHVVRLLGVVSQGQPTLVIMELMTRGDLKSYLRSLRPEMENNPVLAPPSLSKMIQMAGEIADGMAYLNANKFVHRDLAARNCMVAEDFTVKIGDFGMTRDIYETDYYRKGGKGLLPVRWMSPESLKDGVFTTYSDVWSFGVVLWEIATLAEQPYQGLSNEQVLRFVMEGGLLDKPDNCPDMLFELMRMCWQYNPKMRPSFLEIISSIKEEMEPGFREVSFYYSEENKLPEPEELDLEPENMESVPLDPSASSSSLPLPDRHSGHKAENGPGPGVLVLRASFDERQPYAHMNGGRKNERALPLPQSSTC

For `CCN1C(=O)N(c2c(F)c(OC)cc(OC)c2F)Cc2cnc3[nH]c(CN4CCOCC4)cc3c21` [INCB054828, pemigatinib], the IC50 (PDGFR BETA) was 1.79 µM, the IC50 (DYRK2) was greater than 10 µM and the GI50 (H1581 (lung cancer)) was 0.014 ± 0.009 µM. The GI50 (UMUC3) was greater than 5 µM, the IC50 (PKCD) was greater than 10 µM and the IC50 (LCK) was greater than 10 µM. It also gave an IC50 [1] of 0.0082 µM, an IC50 (EPHA2) greater than 10 µM and an IC50 (LRRK2) greater than 10 µM. For the same compound, the GI50 (DMS-114 (lung cancer)) was 0.027 µM, the IC50 (FAK) was greater than 10 µM and the “inhibition of the proliferation of primary T cells” value [2] was “no inhibition”. For the same compound, the clearance (Pharmacokinetic analyses; beagle, plasma, intravenous 1 mg/kg) was 3.05 mL/min/kg, the Cmax (Pharmacokinetic analyses; beagle, plasma, oral 2 mg/kg) was 1770 nM and the bioavailability (Pharmacokinetic analyses; beagle, plasma, oral 2 mg/kg) was 98%. For the same compound, the Vss (Pharmacokinetic analyses; intravenous 1 mg/kg) was 3.49 L/kg, the t½ (Pharmacokinetic analyses; intravenous 1 mg/kg) was 15.7 h and the “Hepatic ER” value (Pharmacokinetic analyses; intravenous 1 mg/kg, % of hepatic blood flow) was 10%. The AUC (Pharmacokinetic analyses; oral 2 mg/kg) was 22.1 µM·h, the “efficacy against subcutaneous xenograft” value [3] was “significant efficacy” and the IC50 (BTK) was greater than 10 µM. The IC50 (MAPKAPK2) was greater than 10 µM, the IC50 [4] was 0.801 µM and the GI50 (KMS12BM) was 2.89 µM. For the same compound, the IC50 (TGFBR1) was greater than 10 µM, the IC50 (IGF1R) was greater than 10 µM and the GI50 (OPM-2 (myeloma)) was 0.018 ± 0.009 µM. The IC50 (LOK) was greater than 10 µM, the “safety profile in phase 1 clinical trials” value [5] was “favorable safety profile” and the “pharmacokinetic data in patients” value ([5]; phase 1 dose-escalation study ref 33) was “low clearance and dose-linearity”. The IC50 (PRKAA1) was greater than 10 µM and the “potent inhibition of FGFR3 (phospho-FGFR3), concentration” value [6] was less than 10 nM.
